# Data reported in PMC9822194, “Chemoselective Synthesis of Mannich Adducts from 1,4-Naphthoquinones and Profile as Autophagic Inducers in Oral Squamous Cell Carcinoma” (Molecules, 2022).
# Like-named read-outs stand apart in the source and are kept apart here.
# Assays:
# SCC-9 (OSCC cells) = assay: MTT cell viability assay (cytotoxicity), SCC9; type: cell-based, Human; conditions: for IC50: MTT, 48 h, Table 1, read-out: SCC9—Oral Cancer IC50; for Selective Index (S.I.): IC50 normal oral fibroblasts/IC50 SCC-9
# Procedure: (§1) Cells and reagents. Human SCC-4, SCC-9 and SCC-25 cells, derived from a human oral tongue SCC were obtained from the ATCC (CRL-1624; CRL-1629 and CRL-1628, respectively) and maintained at 1:1 DMEM/F12 (Dulbecco’s modified Eagle medium and Ham’s F12 medium; Gibco, Thermo Fisher, Waltham, MA, USA) supplemented with 10% (v/v) FBS (fetal bovine serum; Invitrogen, Thermo Fisher, Waltham, MA, USA) and 400 ng/mL hydrocortisone (Sigma-Aldrich Co., St. Louis, MO, USA). Primary normal human gingival fibroblasts were obtained from the ATCC (PCS-201-018), maintained in DMEM supplemented with 10% (v/v) FBS, and used in a maximum of 6 passages. Cells were grown in a humidified environment containing 5% CO2 at 37 °C. […] Carboplatin in water (Fauldcarbo®; Libbs Farmacêutica, São Paulo, SP, Brazil) was used as a standard anticancer compound.
# (§2) Cell viability assay (cytotoxicity) and stability assay. To assess cell viability, cells were grown in triplicate in 96-well plates (5 × 10^3 cells/well) until confluence when treated with the different compounds as in Machado et al.. Briefly, DMSO in the same concentrations was used as a 100% cell viability control. After 48 h, cells were incubated with 5 mg/mL MTT reagent (3-(4,5-dimethyl-2-thiazolyl)-2,5-diphenyl-2H-tetrazolium bromide) (Sigma-Aldrich Co., St. Louis, MO, USA) for 3.5 h. Formazan crystals were dissolved in MTT solvent (DMSO/methanol 1:1 v/v) and the absorbance at 560 nm was evaluated using an EPOCH microplate spectrophotometer (BioTek Instruments, Winooski, VT, USA) with background absorbance at 670 nm subtracted. Each of the eighteen compounds was tested at six or seven different concentrations, ranging from 0.3 µM to 200 µM in cancer cell lines (SCC-4, SCC-9 and SCC-25) and 0.4 µM to 300 µM in normal primary human gingival fibroblast.
# (§3) Statistical analysis, IC50 calculation. IC50 values for MTT assays were obtained by non-linear regression using the GraphPad Prism 5.0 software (GraphPad, San Diego, CA, USA) from at least three independent experiments. Data are presented as means ± SD. A dose-response (inhibitor) vs response curve using the least squares method was used to determine the IC50, SD and R2 of the data. The selectivity index was calculated as S.I. = IC50 of the compound in normal oral fibroblast cells/IC50 of the same compound for each oral cancer cell line (SCC-4, SCC-9 and SCC-25) and the mean was calculated when indicated.
# [1] = system: normal human gingival fibroblasts; assay: MTT cell viability assay, normal fibroblasts; type: cell-based; conditions: MTT, 48 h, Table 1, read-out: Primary Gengival Fibroblast IC50
# Procedure: as §1, §2, §3
Compound,"IC50 (SCC-9 (OSCC cells); Homo sapiens, SCC-9)",Selective Index (S.I.) (SCC-9 (OSCC cells)),"IC50 ([1]; Homo sapiens, Fibroblast)",IC50 (SCC-9 (OSCC cells)),IC50 [1]
"COC(=O)OC1=C(C(c2ccc(Br)cc2)N(Cc2ccccc2)C(=O)OC)C(=O)c2ccccc2C1=O (stereo not drawn) [5d, Methylbenzyl((4-bromophenyl)(3-((methoxycarbonyl)oxy)-1,4-dioxo-1,4-dihydronaphthalen-2-yl)methyl)carbamate]",38.8 µM,1.78,69.1 µM,,
"COC(=O)OC1=C(C(c2ccc(F)cc2)N(Cc2ccccc2)C(=O)OC)C(=O)c2ccccc2C1=O (stereo not drawn) [5e, Methylbenzyl((4-fluorophenyl)(3-((methoxycarbonyl)oxy)-1,4-dioxo-1,4-dihydronaphthalen-2-yl)methyl)carbamate]",22.1 µM,1.81,40.1 µM,,
"Methyl benzyl((phenyl)(3-((methoxycarbonyl)oxy)-1,4-dioxo-1,4-dihydronaphthalen-2-yl)methyl)carbamate [6b]",,2.79,,82.2 µM,230 µM
"COC(=O)OC1=C(C(c2ccc([N+](=O)[O-])cc2)N(Cc2ccccc2)C(=O)OC)C(=O)c2ccccc2C1=O (stereo not drawn) [5c, Methylbenzyl((3-((methoxycarbonyl)oxy)-1,4-dioxo-1,4-dihydronaphthalen-2-yl)(4-nitrophenyl)methyl)carbamate]",24.8 µM,1.54,38.3 µM,,
"COC(=O)OC1=C(C(c2ccc(C)cc2)N(Cc2ccccc2)C(=O)OC)C(=O)c2ccccc2C1=O (stereo not drawn) [5f, Methylbenzyl((3-((methoxycarbonyl)oxy)-1,4-dioxo-1,4-dihydronaphthalen-2-yl)(p-tolyl)methyl)carbamate]",22.2 µM,2.05,45.7 µM,,
COC(=O)N(Cc1ccccc1)C(C1=C(O)C(=O)c2ccccc2C1=O)c1ccc(F)cc1 (stereo not drawn) [6e],73.2 µM,2.68,197 µM,,
"COC(=O)OC1=C(C(c2ccc(OC)cc2)N(Cc2ccccc2)C(=O)OC)C(=O)c2ccccc2C1=O (stereo not drawn) [5g, Methylbenzyl((3-((methoxycarbonyl)oxy)-1,4-dioxo-1,4-dihydronaphthalen-2-yl)(4-methoxyphenyl)methyl)carbamate]",21 µM,1.68,35.5 µM,,
"COC(=O)OC1=C(C(c2cccc(Cl)c2)N(Cc2ccccc2)C(=O)OC)C(=O)c2ccccc2C1=O (stereo not drawn) [5i, Methylbenzyl((3-chlorophenyl)(3-((methoxycarbonyl)oxy)-1,4-dioxo-1,4-dihydronaphthalen-2-yl)methyl)carbamate]",23.9 µM,1.77,42.6 µM,,
"COC(=O)OC1=C(C(c2ccccc2)N(Cc2ccccc2)C(=O)OC)C(=O)c2ccccc2C1=O (stereo not drawn) [5b, Methylbenzyl((3-((methoxycarbonyl)oxy)-1,4-dioxo-1,4-dihydronaphthalen-2yl)(phenyl)methyl)carbamate]",28.5 µM,1.95,55.7 µM,,
"Methyl benzyl((4-nitrophenyl)(3-((methoxycarbonyl)oxy)-1,4-dioxo-1,4-dihydronaphthalen-2-yl)methyl)carbamate [6c]",,2.63,,56.1 µM,148 µM
"Methyl benzyl((4-chlorophenyl)(3-((methoxycarbonyl)oxy)-1,4-dioxo-1,4-dihydronaphthalen-2-yl)methyl)carbamate [5a]",,1.61,,23.2 µM,37.5 µM
"Methyl benzyl((3-chloro-phenyl)(3-((methoxycarbonyl)oxy)-1,4-dioxo-1,4-dihydronaphthalen-2-yl)methyl)carbamate [6i]",,1.03,,70.7 µM,73.5 µM
"Methylbenzyl((3-((methoxycarbonyl)oxy)-1,4-dioxo-1,4-dihydronaphthalen-2-yl)(m-tolyl) methyl)carbamate [5h]",,1.97,,24.9 µM,49.1 µM
